# Assay results as given in ChEMBL document CHEMBL2407028, “Discovery of novel oxazolidinedione derivatives as potent and selective mineralocorticoid receptor antagonists” (Bioorg Med Chem Lett, 2013).
# Biological target: T1, Mineralocorticoid receptor (Homo sapiens, UniProt P08235)
# T1 sequence (P08235 whole entry): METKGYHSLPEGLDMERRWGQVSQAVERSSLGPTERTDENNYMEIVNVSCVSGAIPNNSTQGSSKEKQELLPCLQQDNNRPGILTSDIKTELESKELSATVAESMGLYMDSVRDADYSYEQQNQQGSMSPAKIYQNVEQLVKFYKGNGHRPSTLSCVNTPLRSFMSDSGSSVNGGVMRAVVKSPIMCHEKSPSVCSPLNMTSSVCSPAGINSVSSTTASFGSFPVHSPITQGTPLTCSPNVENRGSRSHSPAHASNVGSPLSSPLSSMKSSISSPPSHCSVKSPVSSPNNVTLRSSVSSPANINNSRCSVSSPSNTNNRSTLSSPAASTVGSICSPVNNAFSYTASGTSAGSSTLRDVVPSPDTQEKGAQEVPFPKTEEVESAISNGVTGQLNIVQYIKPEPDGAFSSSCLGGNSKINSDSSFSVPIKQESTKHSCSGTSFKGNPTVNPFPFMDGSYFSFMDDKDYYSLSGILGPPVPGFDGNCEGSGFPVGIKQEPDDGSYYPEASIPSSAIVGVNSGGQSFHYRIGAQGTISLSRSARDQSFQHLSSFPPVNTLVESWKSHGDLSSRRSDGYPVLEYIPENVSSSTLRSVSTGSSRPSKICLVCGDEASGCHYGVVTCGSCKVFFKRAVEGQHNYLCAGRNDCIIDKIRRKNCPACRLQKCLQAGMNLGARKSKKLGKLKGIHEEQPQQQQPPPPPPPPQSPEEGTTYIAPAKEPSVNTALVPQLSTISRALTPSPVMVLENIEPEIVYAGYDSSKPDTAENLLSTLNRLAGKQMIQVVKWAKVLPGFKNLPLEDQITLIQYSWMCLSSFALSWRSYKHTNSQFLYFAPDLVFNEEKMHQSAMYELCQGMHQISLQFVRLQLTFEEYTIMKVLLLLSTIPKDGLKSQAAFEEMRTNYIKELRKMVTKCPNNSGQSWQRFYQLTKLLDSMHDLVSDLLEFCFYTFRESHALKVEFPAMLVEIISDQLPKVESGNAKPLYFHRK
# Test: Antagonist activity at human mineralocorticoid receptor assessed as inhibition of binding to coactivator peptide by NH Pro assay
row,SMILES,IC50 [nM]
1,COc1cc(CNC(=O)[C@@]2(Cc3ccc(Cl)cc3)OC(=O)N([C@H](C)c3ccccc3)C2=O)cc(OC)c1,> 40000
2,COc1cc(CNC(=O)[C@@]2(Cc3cccc(Cl)c3)OC(=O)N([C@H](C)c3ccccc3)C2=O)cc(OC)c1,750
3,COc1cc(CNC(=O)[C@@]2(Cc3ccccc3Cl)OC(=O)N([C@H](C)c3ccccc3)C2=O)cc(OC)c1,450
4,COc1cc(CNC(=O)[C@@]2(Cc3ccc4ccccc4c3)OC(=O)N([C@H](C)c3ccccc3)C2=O)cc(OC)c1,> 40000
5,COc1cc(CNC(=O)[C@@]2(Cc3ccc4nonc4c3)OC(=O)N([C@H](C)c3ccccc3)C2=O)cc(OC)c1,> 40000
6,COc1cc(CNC(=O)[C@@]2(Cc3cccc4nonc34)OC(=O)N([C@H](C)c3ccccc3)C2=O)cc(OC)c1,> 40000
7,COc1cc(CNC(=O)[C@@]2(Cc3ccccc3)OC(=O)N(C(C)C)C2=O)cc(OC)c1,500
8,COc1cc(CNC(=O)[C@@]2(Cc3ccccc3)OC(=O)N([C@@H](C)c3ccccc3)C2=O)cc(OC)c1,500
9,COc1cc(CNC(=O)[C@@]2(Cc3ccccc3)OC(=O)N([C@H](C)c3ccc(F)cc3)C2=O)cc(OC)c1,37
10,COc1cc(CNC(=O)[C@@]2(Cc3ccccc3)OC(=O)N([C@H](C)c3ccc(Cl)cc3)C2=O)cc(OC)c1,55
11,COc1cc(CNC(=O)[C@@]2(Cc3ccccc3)OC(=O)N([C@H](C)C3CCCCC3)C2=O)cc(OC)c1,14
12,COc1cc(CNC(=O)[C@@]2(Cc3ccccc3)OC(=O)N(C3CCCc4ccccc43)C2=O)cc(OC)c1 (stereo not given in full),170
13,CC[C@H](c1ccccc1)N1C(=O)O[C@](Cc2ccccc2)(C(=O)NCc2cc(OC)cc(OC)c2)C1=O,400
14,COc1cc(CNC(=O)[C@@]2(Cc3ccccc3)OC(=O)N(C3CCN(C(=O)C(F)(F)F)CC3)C2=O)cc(OC)c1,2900
15,COc1cc(CNC(=O)[C@@]2(Cc3ccccc3)NC(=O)N(Cc3ccccc3)C2=O)cc(OC)c1,> 40000
16,COc1cc(CNC(=O)[C@]2(Cc3ccccc3)C(=O)N(Cc3ccccc3)C(=O)N2C)cc(OC)c1,> 40000
17,COc1cc(CNC(=O)C2(Cc3ccccc3)CN(Cc3ccccc3)C(=O)N2)cc(OC)c1 (stereo not given),> 40000
18,COc1cc(CNC(=O)C2(Cc3ccccc3)CCN(Cc3ccccc3)C2)cc(OC)c1 (stereo not given),> 40000
19,COc1cc(CNC(=O)C2(Cc3ccccc3)CC(=O)N([C@H](C)c3ccccc3)C2=O)cc(OC)c1 (stereo not given in full),> 40000
20,COc1cc(CNC(=O)C2(Cc3ccccc3)CCN([C@H](C)c3ccccc3)C2=O)cc(OC)c1 (stereo not given in full),> 10000
21,COc1cc(CNC(=O)C2(Cc3ccccc3)CN(Cc3ccccc3)C(=O)O2)cc(OC)c1 (stereo not given),> 40000
22,C[C@H](c1ccccc1)N1C(=O)O[C@](Cc2ccccc2)(C(=O)N2CCc3ccccc3C2)C1=O,340
23,C[C@H](c1ccccc1)N1C(=O)N[C@](Cc2ccccc2)(C(=O)N2CCc3ccccc3C2)C1=O,990
24,COc1cccc(CNC(=O)[C@@]2(Cc3ccccc3)OC(=O)N(Cc3ccccc3)C2=O)c1,1000

row,SMILES,IC50 [nM]
1,COc1cccc(CNC(=O)[C@@]2(Cc3ccccc3)OC(=O)N([C@H](C)c3ccccc3)C2=O)c1,300
2,COc1ccc(CNC(=O)[C@@]2(Cc3ccccc3)OC(=O)N([C@H](C)c3ccccc3)C2=O)cc1,1000
3,COc1ccccc1CNC(=O)[C@@]1(Cc2ccccc2)OC(=O)N([C@H](C)c2ccccc2)C1=O,500
4,COc1cc(CNC(=O)[C@@]2(Cc3ccccc3)OC(=O)N(Cc3ccccc3)C2=O)cc(OC)c1,3000
5,C[C@H](c1ccccc1)N1C(=O)O[C@](Cc2ccccc2)(C(=O)NCc2ccc(Cl)cc2)C1=O,200
6,C[C@H](c1ccccc1)N1C(=O)O[C@](Cc2ccccc2)(C(=O)NCc2cccc(Cl)c2)C1=O,280
7,C[C@H](c1ccccc1)N1C(=O)O[C@](Cc2ccccc2)(C(=O)N[C@H](C)c2cccc(Cl)c2)C1=O,400
8,C[C@H](NC(=O)[C@@]1(Cc2ccccc2)OC(=O)N([C@H](C)c2ccccc2)C1=O)c1cccc(Cl)c1,2600
9,C[C@H](c1ccccc1)N1C(=O)O[C@](Cc2ccccc2)(C(=O)NCc2ccc(C(F)(F)F)cc2)C1=O,570
10,C[C@H](c1ccccc1)N1C(=O)O[C@](Cc2ccccc2)(C(=O)NCc2cccc(C(F)(F)F)c2)C1=O,500
11,C[C@H](c1ccccc1)N1C(=O)O[C@](Cc2ccccc2)(C(=O)NCc2ccc(S(C)(=O)=O)cc2)C1=O,> 10000
12,C[C@H](c1ccccc1)N1C(=O)O[C@](Cc2ccccc2)(C(=O)NCc2cccc(S(C)(=O)=O)c2)C1=O,3000
13,C[C@H](c1ccccc1)N1C(=O)O[C@](Cc2ccccc2)(C(=O)Nc2ccc3ccccc3c2)C1=O,600
14,C[C@H](c1ccc(F)cc1)N1C(=O)O[C@](Cc2ccccc2)(C(=O)Nc2ccccc2)C1=O,270
15,C[C@H](c1ccc(F)cc1)N1C(=O)O[C@](Cc2ccccc2)(C(=O)Nc2ccc(Cl)cc2)C1=O,180
16,C[C@H](c1ccccc1)N1C(=O)O[C@](Cc2ccccc2)(C(=O)Nc2cccc(Cl)c2)C1=O,2000
17,C[C@H](c1ccccc1)N1C(=O)O[C@](Cc2ccccc2)(C(=O)Nc2ccccc2Cl)C1=O,1000
18,C[C@H](c1ccccc1)N1C(=O)O[C@](Cc2ccccc2)(C(=O)Nc2ccc(F)cc2)C1=O,100
19,C[C@H](c1ccccc1)N1C(=O)O[C@](Cc2ccccc2)(C(=O)Nc2cccc(F)c2)C1=O,300
20,C[C@H](c1ccccc1)N1C(=O)O[C@](Cc2ccccc2)(C(=O)Nc2ccc(C#N)cc2)C1=O,100
21,C[C@H](c1ccccc1)N1C(=O)O[C@](Cc2ccccc2)(C(=O)NC2CCCCC2)C1=O,4000
22,C[C@H](c1ccccc1)N1C(=O)O[C@](Cc2ccccc2)(C(=O)NC2CCC2)C1=O,1200
23,C[C@H](c1ccccc1)N1C(=O)O[C@](Cc2ccccc2)(C(=O)NC2CC2)C1=O,2000
24,C[C@H](c1ccccc1)N1C(=O)O[C@](Cc2ccccc2)(C(=O)N[C@H]2C[C@@H](c3ccccc3)C2)C1=O,650

row,SMILES,IC50 [nM]
1,C[C@H](c1ccccc1)N1C(=O)O[C@](Cc2ccccc2)(C(=O)N[C@H]2C[C@H](c3ccccc3)C2)C1=O,190
2,C[C@H](c1ccccc1)N1C(=O)O[C@](Cc2ccccc2)(C(=O)N[C@@H]2C[C@H]2c2ccccc2)C1=O,250
3,Cc1cc(CNC(=O)[C@@]2(Cc3ccccc3)OC(=O)N([C@H](C)c3ccccc3)C2=O)on1,3000
4,CCn1cc(CNC(=O)[C@@]2(Cc3ccccc3)OC(=O)N([C@H](C)c3ccccc3)C2=O)cn1,> 10000
5,C[C@H](c1ccccc1)N1C(=O)O[C@](Cc2ccccc2)(C(=O)NCc2ccncc2)C1=O,> 40000
6,C[C@H](c1ccccc1)N1C(=O)O[C@](Cc2ccccc2)(C(=O)NCc2cccnc2)C1=O,13000
7,C[C@H](c1ccccc1)N1C(=O)O[C@](Cc2ccccc2)(C(=O)NCc2ccccn2)C1=O,16000
8,O=C1O[C@](Cc2ccccc2)(C(=O)NCc2nccs2)C(=O)N1Cc1ccccc1,> 40000
9,C[C@H](c1ccccc1)N1C(=O)O[C@](Cc2ccccc2)(C(=O)NCc2ccc3ccccc3n2)C1=O,2500
10,C[C@H](c1ccccc1)N1C(=O)O[C@](Cc2ccccc2)(C(=O)NCc2ccc3cnccc3c2)C1=O,1500
11,C[C@H](c1ccccc1)N1C(=O)O[C@](Cc2ccccc2)(C(=O)NCc2cccc3cnccc23)C1=O,3000
12,C[C@H](c1ccccc1)N1C(=O)O[C@](Cc2ccccc2)(C(=O)NCc2cccc3ccnn23)C1=O,300
13,C[C@H](c1ccccc1)N1C(=O)O[C@](Cc2ccccc2)(C(=O)NCCc2ccncc2)C1=O,4000
14,C[C@H](c1ccccc1)N1C(=O)O[C@](Cc2ccccc2)(C(=O)NCCc2ccccn2)C1=O,15000
15,C[C@H](c1ccccc1)N1C(=O)O[C@](Cc2ccccc2)(C(=O)NCCc2nnc[nH]2)C1=O,> 40000
16,C[C@H](c1ccccc1)N1C(=O)O[C@](Cc2ccccc2)(C(=O)NCCc2cn[nH]c2)C1=O,> 40000
17,COc1cc(CNC(=O)[C@H]2OC(=O)N(Cc3ccccc3)C2=O)cc(OC)c1,> 40000
18,COc1cc(CNC(=O)[C@@]2(Cc3ccncc3)OC(=O)N(Cc3ccccc3)C2=O)cc(OC)c1,30000
19,COc1cc(CNC(=O)[C@@]2(Cc3ccccn3)OC(=O)N([C@H](C)c3ccccc3)C2=O)cc(OC)c1,3000
20,COc1cc(CNC(=O)[C@@]2(Cc3ccc(F)cc3)OC(=O)N([C@H](C)c3ccccc3)C2=O)cc(OC)c1,200
21,COc1cc(CNC(=O)[C@@]2(Cc3cccc(F)c3)OC(=O)N([C@H](C)c3ccccc3)C2=O)cc(OC)c1,280
22,COc1cc(CNC(=O)[C@@]2(Cc3ccccc3F)OC(=O)N([C@H](C)c3ccccc3)C2=O)cc(OC)c1,300
